# Laboratory results taken from US20130072470A1 (ABBVIE INC., priority 2011, published 2013).
# Molecular target: T1, Jak3 enzyme (aa 811-1103) (Homo sapiens, UniProt P52333)
# T1 construct: Jak3 enzyme (aa 811-1103); expressed in SF9 cells as a GST fusion; GST; made in house; host or cells: SF9 insect cells
# Experiment: In vitro Jak3 kinase activity measured by time-resolved fluorescence resonance energy transfer (trFRET)
# Format: biochemical
# Conditions: ATP 0.001 mM
# Summary of the method: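 GST-tagged Jak3 (aa 811-1103, Sf9-expressed; 3 nM) with 2 μM biotin-peptide substrate and 1 μM ATP in MOPSO pH 6.5 with Mg2+/Mn2+, about 60 min at rt. EDTA-quenched; Eu anti-phosphotyrosine/streptavidin-APC trFRET read at 665 nm; IC50 from signal in linear range.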
# T1 sequence (P52333 811-1103): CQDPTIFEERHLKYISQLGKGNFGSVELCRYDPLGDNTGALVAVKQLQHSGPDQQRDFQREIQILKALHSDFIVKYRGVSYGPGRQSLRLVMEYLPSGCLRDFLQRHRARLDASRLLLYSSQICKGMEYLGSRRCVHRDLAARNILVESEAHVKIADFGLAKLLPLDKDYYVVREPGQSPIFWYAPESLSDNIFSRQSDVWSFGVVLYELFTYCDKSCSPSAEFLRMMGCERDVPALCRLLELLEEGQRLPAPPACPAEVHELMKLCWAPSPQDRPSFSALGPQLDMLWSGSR
row,IC50,SMILES
1,1 to 10 µM,CC[C@@H]1CN(C(=O)CCCC#N)C[C@@H]1c1cnc2cnc3[nH]ccc3n12 [Example #12]
2,> 10 µM,"Cc1cnc(C(=O)N[C@H]2C[C@@H](C)[C@@H](c3cnc4cnc5[nH]ccc5n34)C2)cn1 [Example #1, N-((1S,3S,4R)-3-(3H-imidazo[1,2-a]pyrrolo[2,3-e]pyrazin-8-yl)-4-methylcyclopentyl)-5-methylpyrazine-2-carboxamide]"
3,1 to 10 µM,"CC[C@@H]1C[C@@H](CCC#N)C[C@@H]1c1nnc2cnc3[nH]ccc3n12 [Example #23, 3-((1R,3R,4S)-3-ethyl-4-(6H-pyrrolo[2,3-e][1,2,4]triazolo[4,3-a]pyrazin-1-yl)cyclopentyl)propanenitrile]"
4,> 10 µM,"C[C@@H]1C[C@H](NCc2cnc(C(F)(F)F)nc2)C[C@@H]1c1cnc2cnc3[nH]ccc3n12 [Example #4, (1S,3S,4R)-3-(3H-imidazo[1,2-a]pyrrolo[2,3-e]pyrazin-8-yl)-4-methyl-N-((2-(trifluoromethyl)pyrimidin-5-yl)methyl)cyclopentylamine]"
5,1 to 10 µM,"CC[C@@H]1CN(C(=O)NCC(F)F)C[C@@H]1c1cnc2cnc3[nH]ccc3n12 [Example #14, (3S,4R)—N-(2,2-difluoroethyl)-3-ethyl-4-(3H-imidazo[1,2-a]pyrrolo[2,3-e]pyrazin-8-yl)pyrrolidine-1-carboxamide]"
6,> 10 µM,"CC[C@@H]1C[C@@H](C(=O)NCC(F)(F)F)C[C@@H]1c1nnc2cnc3[nH]ccc3n12 [Example #6, (1R,3R,4S)-3-ethyl-4-(6H-pyrrolo[2,3-e][1,2,4]triazolo[4,3-a]pyrazin-1-yl)-N-(2,2,2-trifluoroethyl)cyclopentanecarboxamide]"
7,> 10 µM,"C[C@@H]1C[C@@H](N2CCC(C#N)CC2)C[C@@H]1c1cnc2cnc3[nH]ccc3n12 [Example #8, 1-((1R,3S,4R)-3-(3H-imidazo[1,2-a]pyrrolo[2,3-e]pyrazin-8-yl)-4-methylcyclopentyl)piperidine-4-carbonitrile]"
8,> 10 µM,"C[C@@H]1CN(C(=O)NCC(F)(F)F)C[C@@H]1c1cnc2cnc3[nH]ccc3n12 [Example #18, (3S,4R)-3-methyl-4-(3H-imidazo[1,2-a]pyrrolo[2,3-e]pyrazin-8-yl)-N-(2,2,2-trifluoroethyl)pyrrolidine-1-carboxamide]"

# Same assay, conditions: ATP 0.001 mM, Table B
row,IC50,SMILES
1,1 to 10 µM,"CC[C@@H]1C[C@H](NC(=O)Cc2coc3ccccc23)C[C@@H]1c1nnc2cnc3[nH]ccc3n12 [compound 41, 2-(benzofuran-3-yl)-N-((1S,3R,4S)-3-ethyl-4-(6H-pyrrolo[2,3-e][1,2,4]triazolo[4,3-a]pyrazin-1-yl)cyclopentyl)acetamide]"
2,1 to 10 µM,"CC[C@@H]1C[C@H](NC(=O)c2ccco2)C[C@@H]1c1nnc2cnc3[nH]ccc3n12 [compound 78, N-((1S,3R,4S)-3-ethyl-4-(6H-pyrrolo[2,3-e][1,2,4]triazolo[4,3-a]pyrazin-1-yl)cyclopentyl)furan-2-carboxamide]"
3,> 10 µM,"CC[C@@H]1C[C@H](NC(=O)c2ncoc2C2CC2)C[C@@H]1c1nnc2cnc3[nH]ccc3n12 [compound 47, 5-cyclopropyl-N-((1S,3R,4S)-3-ethyl-4-(6H-pyrrolo[2,3-e][1,2,4]triazolo[4,3-a]pyrazin-1-yl)cyclopentyl)oxazole-4-carboxamide]"
4,1 to 10 µM,"CC[C@@H]1C[C@H](NC(=O)c2ccc(CSC)o2)C[C@@H]1c1nnc2cnc3[nH]ccc3n12 [compound 64, N-((1S,3R,4S)-3-ethyl-4-(6H-pyrrolo[2,3-e][1,2,4]triazolo[4,3-a]pyrazin-1-yl)cyclopentyl)-5-(methylthiomethyl)furan-2-carboxamide]"
5,1 to 10 µM,"CC[C@@H]1C[C@H](NC(=O)Cc2noc3ccccc23)C[C@@H]1c1nnc2cnc3[nH]ccc3n12 [compound 71, 2-(benzo[d]isoxazol-3-yl)-N-((1S,3R,4S)-3-ethyl-4-(6H-pyrrolo[2,3-e][1,2,4]triazolo[4,3-a]pyrazin-1-yl)cyclopentyl)acetamide]"
6,1 to 10 µM,"CC[C@@H]1C[C@H](NC(=O)c2cc3ccc(C)cc3o2)C[C@@H]1c1nnc2cnc3[nH]ccc3n12 [compound 33, N-((1S,3R,4S)-3-ethyl-4-(6H-pyrrolo[2,3-e][1,2,4]triazolo[4,3-a]pyrazin-1-yl)cyclopentyl)-6-methylbenzofuran-2-carboxamide]"
7,> 10 µM,"CC[C@@H]1C[C@H](NC(=O)COc2cc(C)on2)C[C@@H]1c1nnc2cnc3[nH]ccc3n12 [compound 26, N-((1S,3R,4S)-3-ethyl-4-(6H-pyrrolo[2,3-e][1,2,4]triazolo[4,3-a]pyrazin-1-yl)cyclopentyl)-2-(5-methylisoxazol-3-yloxy)acetamide]"
8,1 to 10 µM,"CC[C@@H]1C[C@H](NC(=O)c2ccoc2)C[C@@H]1c1nnc2cnc3[nH]ccc3n12 [compound 56, N-((1S,3R,4S)-3-ethyl-4-(6H-pyrrolo[2,3-e][1,2,4]triazolo[4,3-a]pyrazin-1-yl)cyclopentyl)furan-3-carboxamide]"
9,> 10 µM,"CC[C@@H]1C[C@H](NC(=O)C(CC2CC2)NC(C)=O)C[C@@H]1c1nnc2cnc3[nH]ccc3n12 (stereo partly drawn) [compound 31, 2-acetamido-3-cyclopropyl-N-((1S,3R,4S)-3-ethyl-4-(6H-pyrrolo[2,3-e][1,2,4]triazolo[4,3-a]pyrazin-1-yl)cyclopentyl)propanamide]"
